# Results taken from PMC12307992, “The Potential Influence of Associated Antidepressants on the Pharmacokinetic Profile of Esketamine in Patients Affected by Treatment-resistant Depression” (Current Neuropharmacology, 2025).
# Experiments:
# [1] = Serum esketamine levels (LC-MS/MS) after intranasal esketamine 56 mg in TRD patients; conditions: for AUC: human, serum, other: intranasal, 56 mg, AUC value, 0-72 h
# [2] = Salivary esketamine levels (LC-MS/MS) after intranasal esketamine 56 mg in TRD patients
# [3] = phase 3 studies; cited from earlier work
# [4] = after intranasal administration; cited from earlier work
# [5] = Adverse events 20 min post-esketamine (blood pressure, dizziness, confusion, ACES) in relation to serum levels; assay type: in vivo, patients
# Protocol: Adverse events of intranasal administration of esketamine were evaluated 20 min post-esketamine initiation, such as changes in systolic and diastolic blood pressure, vertigo, dissociation, dizziness, sedation, headache, nausea and vomiting, and confusion.
# (§1) To assess the changes in clinical status with treatment, we administered the following clinical scales at BL and one month after the first intranasal esketamine: clinician-rated Brief Psychiatric Rating Scale-version 4.0 (BPRS-24) to evaluate psychiatric symptoms; Montgomery-Åsberg Depression Rating Scale (MADRS) and Hamilton Depression Rating Scale (HAM-D) to assess depression; Hamilton Anxiety Rating Scale (HAM-A) to assess anxiety; Young Mania Rating Scale (YMRS) to assess manic symptoms, Clinical Global Impressions Scale (CGI) to assess the overall severity (CGI-S) and improvement (CGI-I), with CGI-S administered at both timepoints and CGI-I only at 1 month. Self-rated scales included the Beck Depression Inventory, 2nd edition (BDI-II), used to assess the cognitive aspects of depression (Beck’s cognitive triad), and the World Health Organization Quality of Life Scale-Brief (WHOQOL-BREF) to assess patient’s quality-of-life (QoL). For all scales save the WHOQOL-BREF, higher scores indicate higher psychopathology, while for the WHOQOL-BREF, higher scores reflect better QoL. Furthermore, we administered the clinician-rated Agitation-Calmness Evaluation Scale (ACES) to assess agitation vs. sedation during the first esketamine administration phase (BL to 72 hours). ACES is a single-item scale, in which scores from 1 to 3 are inversely related to the degree of agitation, and scores from 5 to 9 are directly related to calmness and sedation, until the score of 8 and 9, which indicate deep sleep and unarousable state, respectively. Finally, we evaluated dissociation with the Clinician-Administered Dissociative States Scale (CADSS) following the first esketamine administration (BL to 72 hours).
# After having applied the Shapiro-Wilk test to ascertain the normality of distribution of our sample and the Mauchly sphericity test to assess the validity of the Analysis of Variance (ANOVA), we proceeded by performing parametric tests. We used the ANOVA-1way to compare samples for continuous variables and Fishers Least Significant Difference (LSD) to test differences in nominal variables. We used Grubbs’ test (alpha=0.05) to identify statistically significant outliers to exclude them from further analyses. Correlations were sought through Pearson’s r correlation coefficient. Besides concentrations, we calculated the area under the curve (AUC) as stated above. For all other calculations, we used the IBM Statistical Package for the Social Sciences (SPSS), version 29.0 (September 2022, Armonk, New York: IBM Corporation).
# [6] = Clinical rating scales at baseline and one month after first intranasal esketamine; assay type: in vivo, patients
# From the text: as §1
# [7] = design: method as in earlier work; conditions: ref Data on File. Esketamine. Summary of Clinical Pharmacology. Janssen Research & Development, LLC. EMDS-ERI-149761559; 2018; cited from earlier work
# [8] = 20 min post-esketamine, 15 patients
# [9] = one month following initial esketamine administration, 15 patients
smiles,measurement,setting,value
"CN[C@]1(c2ccccc2Cl)CCCCC1=O [esketamine, (S)-isomer of ketamine]",Serum esketamine levels after 72 hours,"[1]; 56 mg intranasal, all groups",undetectable
same,AUC value of patient greater than average value of the group,[1]; group 2 patient on oxcarbazepine vs group 2 average,46%
same,AUC,"[1]; average of group, group 1 (paroxetine/fluoxetine)",868 ng·h/mL
same,AUC,"[1]; average of group, group 2 (duloxetine)",655 ng·h/mL
same,AUC,"[1]; average of group, group 3 (venlafaxine/desvenlafaxine)",857 ng·h/mL
same,AUC,"[1]; average of group, group 4 (sertraline/citalopram/escitalopram)",419 ng·h/mL
same,AUC,"[1]; average of group, group 5 (vortioxetine)",439 ng·h/mL
same,AUC,"[1]; average of group, group 6 (TCAs/mirtazapine/trazodone)",705 ng·h/mL
same,AUC,"[1]; single patient, group 1 patient on paroxetine, bupropion, valproate and atorvastatine",628 ng·h/mL
same,AUC,"[1]; single patient, group 2 patient also on oxcarbazepine",954 ng·h/mL
same,AUC,"[1]; single patient, group 3 patient also on valproate",298 ng·h/mL
same,AUC,"[1]; single patient, group 3 patient also on valproate and atorvastatin",599 ng·h/mL
same,AUC,"[1]; single patient, group 4 patient also on topiramate",921 ng·h/mL
same,AUC,"[1]; single patient, group 5 patient also on prednisone",957 ng·h/mL
same,AUC,"[1]; single patient, group 6 patient on mirtazapine and oxcarbazepine",260 ng·h/mL
same,Salivary levels of esketamine at 20 min relative to serum levels,[2]; 56 mg intranasal,several-fold greater than serum levels
same,Esketamine levels in the saliva after 72 hours,"[2]; a few patients on fluoxetine/paroxetine, duloxetine or venlafaxine/desvenlafaxine",still detectable
same,concentration at 20 min,"[2]; human, saliva, other: intranasal, 56 mg",> 1000 ng/mL
same,Patients with a rise in blood pressure,[3],< 10%
same,elimination half-life (t½),[4],7 to 12 h
same,time to reach maximum plasma concentrations (Tmax),[4],0.333 to 0.667 h
same,Correlation (χ2) of confusion with serum esketamine levels,"[5]; 20 min post-administration, p < 0.05",3.830
same,Correlation (χ2) of dizziness with serum esketamine levels,"[5]; 20 min post-administration, p = 0.043",4.114
same,Patients with blood pressure reduced,[5]; [8],28.3%
same,Patients with blood pressure relatively unchanged,[5]; [8],28.3%
same,Patients with a rise in systolic blood pressure,"[5]; 20 min post-esketamine, 23 of 53 patients",43.4%
same,Correlation (r) between serum esketamine values and changes in systolic blood pressure,"[5]; at 20 min, p = 0.0003",0.23
same,Correlation (r) between esketamine levels and changes in ACES,"[5]; at 20 minutes, p = 0.02",0.1
same,"Global scores of all clinical scales (BPRS-Total, MADRS, BDI, WHOQOL-BREF or CGI)",[6]; 1 month after esketamine administration,improved
same,YMRS values,"[6]; absolute score, all patients",< 8
same,Patients in whom HAM-A values dropped,[6]; baseline to 1 month,51 of 53
same,Patients with YMRS scores increased,[6]; [9],28.3%
same,Patients with YMRS scores unchanged,[6]; [9],28.3%
same,Patients with YMRS scores decreased,"[6]; one month following initial esketamine administration, 23 patients",43.4%
CC[C@H]1OC(=O)[C@H](C)[C@@H](O[C@H]2C[C@@](C)(OC)[C@@H](O)[C@H](C)O2)[C@H](C)[C@@H](O[C@@H]2O[C@H](C)C[C@H](N(C)C)[C@H]2O)[C@](C)(OC)C[C@@H](C)C(=O)[C@H](C)[C@@H](O)[C@]1(C)O [clarithromycine],Effect of co-treatment on the PK profile of esketamine,[7],negligible effect
